Measurements taken from US20250352520A1, “USE OF DEXPRAMIPEXOLE FOR THE TREATMENT OF EOSINOPHILIC COPD” (Areteia Therapeutics, Inc., priority 2024, published 2025).

Settings: Week 8; <50% AEC reduction at Week 16

CCCN[C@@H]1CCc2nc(N)sc2C1 [Dexpramipexole, (6R)-2-amino-4,5,6,7-tetrahydro-6-(propylamino)benzothiazole]
Pre-BD FEF25-75 % change from baseline, Max: 58% | Pre-BD FEF25-75 % change from baseline, Mean ± SD: 30.4 ± 31.72% | Pre-BD FEF25-75 % change from baseline, Median: 38.4% | Pre-BD FEF25-75 % change from baseline, Min: −14% | Pre-BD FEF25-75 % change from baseline, Q1: 8% | Pre-BD FEF25-75 % change from baseline, Q3: 53% | Pre-BD FEF25-75 Observed, Max: 2050 mL/s | Pre-BD FEF25-75 Observed, Mean ± SD: 875.0 ± 790.55 mL/s | Pre-BD FEF25-75 Observed, Median: 535.0 mL/s | Pre-BD FEF25-75 Observed, Min: 380 mL/s | Pre-BD FEF25-75 Observed, Q1: 410 mL/s | Pre-BD FEF25-75 Observed, Q3: 1340 mL/s | Pre-BD FEF25-75 change from baseline, Max: 660 mL/s | Pre-BD FEF25-75 change from baseline, Mean ± SD: 200.0 ± 324.14 mL/s | Pre-BD FEF25-75 change from baseline, Median: 120.0 mL/s | Pre-BD FEF25-75 change from baseline, Min: -100 mL/s | Pre-BD FEF25-75 change from baseline, Q1: 0 mL/s | Pre-BD FEF25-75 change from baseline, Q3: 400 mL/s | Pre-BD FEV1 % change from baseline, Max: 41% | Pre-BD FEV1 % change from baseline, Mean ± SD: 16.0 ± 19.59% | Pre-BD FEV1 % change from baseline, Median: 13.2% | Pre-BD FEV1 % change from baseline, Min: −4% | Pre-BD FEV1 % change from baseline, Q1: 1% | Pre-BD FEV1 % change from baseline, Q3: 31% | Pre-BD FEV1 Observed, Max: 2940 mL | Pre-BD FEV1 Observed, Mean ± SD: 1755.0 ± 860.79 mL | Pre-BD FEV1 Observed, Median: 1600.0 mL | Pre-BD FEV1 Observed, Min: 880 mL | Pre-BD FEV1 Observed, Q1: 1215 mL | Pre-BD FEV1 Observed, Q3: 2295 mL | Pre-BD FEV1 change from baseline, Max: 860 mL | Pre-BD FEV1 change from baseline, Mean ± SD: 282.5 ± 410.23 mL | Pre-BD FEV1 change from baseline, Median: 165.0 mL | Pre-BD FEV1 change from baseline, Min: -60 mL | Pre-BD FEV1 change from baseline, Q1: -5 mL | Pre-BD FEV1 change from baseline, Q3: 570 mL | Pre-BD FVC % change from baseline, Max: 17% | Pre-BD FVC % change from baseline, Mean ± SD: 4.5 ± 11.70% | Pre-BD FVC % change from baseline, Median: 5.1% | Pre-BD FVC % change from baseline, Min: −9% | Pre-BD FVC % change from baseline, Q1: −5% | Pre-BD FVC % change from baseline, Q3: 14% | Pre-BD FVC Observed, Max: 3990 mL | Pre-BD FVC Observed, Mean ± SD: 3162.5 ± 792.10 mL | Pre-BD FVC Observed, Median: 3175.0 mL | Pre-BD FVC Observed, Min: 2310 mL | Pre-BD FVC Observed, Q1: 2500 mL | Pre-BD FVC Observed, Q3: 3825 mL | Pre-BD FVC change from baseline, Max: 540 mL | Pre-BD FVC change from baseline, Mean ± SD: 167.5 ± 353.02 mL | Pre-BD FVC change from baseline, Median: 185.0 mL | Pre-BD FVC change from baseline, Min: -240 mL | Pre-BD FVC change from baseline, Q1: -120 mL | Pre-BD FVC change from baseline, Q3: 455 mL | Pre-BD Peak Flow % change from baseline, Max: 500% | Pre-BD Peak Flow % change from baseline, Mean ± SD: 136.0 ± 243.51% | Pre-BD Peak Flow % change from baseline, Median: 28.5% | Pre-BD Peak Flow % change from baseline, Min: −13% | Pre-BD Peak Flow % change from baseline, Q1: 4% | Pre-BD Peak Flow % change from baseline, Q3: 268% | Pre-BD Peak Flow Observed, Max: 319 L/min | Pre-BD Peak Flow Observed, Mean ± SD: 227.0 ± 70.68 L/min | Pre-BD Peak Flow Observed, Median: 217.5 L/min | Pre-BD Peak Flow Observed, Min: 154 L/min | Pre-BD Peak Flow Observed, Q1: 175 L/min | Pre-BD Peak Flow Observed, Q3: 280 L/min | Pre-BD Peak Flow change from baseline, Max: 200 L/min | Pre-BD Peak Flow change from baseline, Mean ± SD: 70.5 ± 97.89 L/min | Pre-BD Peak Flow change from baseline, Median: 55.5 L/min | Pre-BD Peak Flow change from baseline, Min: -29 L/min | Pre-BD Peak Flow change from baseline, Q1: -1 L/min | Pre-BD Peak Flow change from baseline, Q3: 142 L/min
